# According to PubChem BioAssay (NCI):
#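 In this assay, cells in 96-well plates receive the compound at five concentrations for 48 hours. Endpoints are linearly interpolated between the surrounding concentrations. TGI is the concentration that stops growth completely.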
# Tests used:
# Test in all cases: NCI anticancer screen, dose series, 48 h
# 786-0 renal = tested on: 786-0 renal
# A549 NSCLC = tested on: A549 NSCLC
# ACHN renal = tested on: ACHN renal
# BT-549 breast = tested on: BT-549 breast
# CAKI-1 renal = tested on: CAKI-1 renal
# COLO 205 colon = tested on: COLO 205 colon
# DU-145 prostate = tested on: DU-145 prostate
# EKVX NSCLC = tested on: EKVX NSCLC
# HCC-2998 colon = tested on: HCC-2998 colon
# HCT-116 colon = tested on: HCT-116 colon
# HCT-15 colon = tested on: HCT-15 colon
# HOP-62 NSCLC = tested on: HOP-62 NSCLC
# IGROV1 ovarian = tested on: IGROV1 ovarian
# KM12 colon = tested on: KM12 colon
# LOX IMVI melanoma = tested on: LOX IMVI melanoma
# M14 melanoma = tested on: M14 melanoma
# MALME-3M melanoma = tested on: MALME-3M melanoma
# MCF7 breast = tested on: MCF7 breast
# MDA-MB-231 breast = tested on: MDA-MB-231 breast
# MDA-N = tested on: MDA-N
# NCI-H226 lung = tested on: NCI-H226 lung
# NCI-H23 lung = tested on: NCI-H23 lung
# NCI-H460 lung = tested on: NCI-H460 lung
# NCI-H522 lung = tested on: NCI-H522 lung
# NCI/ADR-RES ovarian = tested on: NCI/ADR-RES ovarian
# OVCAR-3 ovarian = tested on: OVCAR-3 ovarian
# OVCAR-5 ovarian = tested on: OVCAR-5 ovarian
# PC-3 prostate = tested on: PC-3 prostate
# RXF 393 renal = tested on: RXF 393 renal
# SF-268 CNS = tested on: SF-268 CNS
# SF-295 CNS = tested on: SF-295 CNS
# SF-539 CNS = tested on: SF-539 CNS
# SK-MEL-5 melanoma = tested on: SK-MEL-5 melanoma
# SK-OV-3 ovarian = tested on: SK-OV-3 ovarian
# SNB-19 CNS = tested on: SNB-19 CNS
# TK-10 renal = tested on: TK-10 renal
# UACC-257 melanoma = tested on: UACC-257 melanoma
# UACC-62 melanoma = tested on: UACC-62 melanoma
# UO-31 renal = tested on: UO-31 renal
# A498 renal = tested on: A498 renal
# CCRF-CEM leukemia = tested on: CCRF-CEM leukemia
# HL-60(TB) leukemia = tested on: HL-60(TB) leukemia
# HOP-92 NSCLC = tested on: HOP-92 NSCLC
# HS 578T breast = tested on: HS 578T breast
# HT29 colon = tested on: HT29 colon
# K-562 leukemia = tested on: K-562 leukemia
# MDA-MB-435 = tested on: MDA-MB-435
# MOLT-4 leukemia = tested on: MOLT-4 leukemia
# OVCAR-8 ovarian = tested on: OVCAR-8 ovarian
# RPMI-8226 leukemia = tested on: RPMI-8226 leukemia
# SK-MEL-28 melanoma = tested on: SK-MEL-28 melanoma
# SN12C renal = tested on: SN12C renal
# SNB-75 CNS = tested on: SNB-75 CNS
# SR leukemia = tested on: SR leukemia
# SW-620 colon = tested on: SW-620 colon
# T-47D breast = tested on: T-47D breast
# U251 CNS = tested on: U251 CNS
# OVCAR-4 ovarian = tested on: OVCAR-4 ovarian
# SK-MEL-2 melanoma = tested on: SK-MEL-2 melanoma
smiles,measurement,setting,value
Cc1cc(C)nc(NCCC(O)(P(=O)(O)O)P(=O)(O)O)n1,TGI,786-0 renal,> 100 µM
same,TGI,A549 NSCLC,> 100 µM
same,TGI,ACHN renal,> 100 µM
same,TGI,BT-549 breast,> 100 µM
same,TGI,CAKI-1 renal,> 100 µM
same,TGI,COLO 205 colon,> 100 µM
same,TGI,DU-145 prostate,> 100 µM
same,TGI,EKVX NSCLC,> 100 µM
same,TGI,HCC-2998 colon,> 100 µM
same,TGI,HCT-116 colon,> 100 µM
same,TGI,HCT-15 colon,> 100 µM
same,TGI,HOP-62 NSCLC,> 100 µM
same,TGI,IGROV1 ovarian,> 100 µM
same,TGI,KM12 colon,> 100 µM
same,TGI,LOX IMVI melanoma,> 100 µM
same,TGI,M14 melanoma,> 100 µM
same,TGI,MALME-3M melanoma,> 100 µM
same,TGI,MCF7 breast,> 100 µM
same,TGI,MDA-MB-231 breast,> 100 µM
same,TGI,MDA-N,> 100 µM
same,TGI,NCI-H226 lung,> 100 µM
same,TGI,NCI-H23 lung,> 100 µM
same,TGI,NCI-H460 lung,> 100 µM
same,TGI,NCI-H522 lung,> 100 µM
same,TGI,NCI/ADR-RES ovarian,> 100 µM
same,TGI,OVCAR-3 ovarian,> 100 µM
same,TGI,OVCAR-5 ovarian,> 100 µM
same,TGI,PC-3 prostate,> 100 µM
same,TGI,RXF 393 renal,> 100 µM
same,TGI,SF-268 CNS,> 100 µM
same,TGI,SF-295 CNS,> 100 µM
same,TGI,SF-539 CNS,> 100 µM
same,TGI,SK-MEL-5 melanoma,> 100 µM
same,TGI,SK-OV-3 ovarian,> 100 µM
same,TGI,SNB-19 CNS,> 100 µM
same,TGI,TK-10 renal,> 100 µM
same,TGI,UACC-257 melanoma,> 100 µM
same,TGI,UACC-62 melanoma,> 100 µM
same,TGI,UO-31 renal,> 100 µM
C/C(=N\O)C1CC2C=C(C#N)C1N(Cc1ccccc1)C2 (stereo not drawn),TGI,786-0 renal,> 100 µM
same,TGI,A498 renal,> 100 µM
same,TGI,A549 NSCLC,> 100 µM
same,TGI,ACHN renal,> 100 µM
same,TGI,CAKI-1 renal,> 100 µM
same,TGI,CCRF-CEM leukemia,> 100 µM
same,TGI,COLO 205 colon,> 100 µM
same,TGI,DU-145 prostate,> 100 µM
same,TGI,EKVX NSCLC,> 100 µM
same,TGI,HCC-2998 colon,> 100 µM
same,TGI,HCT-116 colon,> 100 µM
same,TGI,HCT-15 colon,> 100 µM
same,TGI,HL-60(TB) leukemia,> 100 µM
same,TGI,HOP-62 NSCLC,> 100 µM
same,TGI,HOP-92 NSCLC,> 100 µM
same,TGI,HS 578T breast,> 100 µM
same,TGI,HT29 colon,> 100 µM
same,TGI,K-562 leukemia,> 100 µM
same,TGI,KM12 colon,> 100 µM
same,TGI,LOX IMVI melanoma,> 100 µM
same,TGI,M14 melanoma,> 100 µM
same,TGI,MALME-3M melanoma,> 100 µM
same,TGI,MCF7 breast,> 100 µM
same,TGI,MDA-MB-231 breast,> 100 µM
same,TGI,MDA-MB-435,> 100 µM
same,TGI,MDA-N,> 100 µM
same,TGI,MOLT-4 leukemia,> 100 µM
same,TGI,NCI-H226 lung,> 100 µM
same,TGI,NCI-H23 lung,> 100 µM
same,TGI,NCI-H460 lung,> 100 µM
same,TGI,NCI/ADR-RES ovarian,> 100 µM
same,TGI,OVCAR-3 ovarian,> 100 µM
same,TGI,OVCAR-5 ovarian,> 100 µM
same,TGI,OVCAR-8 ovarian,> 100 µM
same,TGI,PC-3 prostate,> 100 µM
same,TGI,RPMI-8226 leukemia,> 100 µM
same,TGI,RXF 393 renal,> 100 µM
same,TGI,SF-268 CNS,> 100 µM
same,TGI,SF-295 CNS,> 100 µM
same,TGI,SF-539 CNS,> 100 µM
same,TGI,SK-MEL-28 melanoma,> 100 µM
same,TGI,SK-MEL-5 melanoma,> 100 µM
same,TGI,SK-OV-3 ovarian,> 100 µM
same,TGI,SN12C renal,> 100 µM
same,TGI,SNB-19 CNS,> 100 µM
same,TGI,SNB-75 CNS,> 100 µM
same,TGI,SR leukemia,> 100 µM
same,TGI,SW-620 colon,> 100 µM
same,TGI,T-47D breast,> 100 µM
same,TGI,TK-10 renal,> 100 µM
same,TGI,U251 CNS,> 100 µM
same,TGI,UACC-257 melanoma,> 100 µM
same,TGI,UACC-62 melanoma,> 100 µM
same,TGI,UO-31 renal,> 100 µM
C/C(=C\CNc1ncnc2c1ncn2CCC(=O)OC(C)(C)C)CO,TGI,786-0 renal,> 100 µM
same,TGI,A498 renal,> 100 µM
same,TGI,A549 NSCLC,> 100 µM
same,TGI,ACHN renal,> 100 µM
same,TGI,CAKI-1 renal,> 100 µM
same,TGI,CCRF-CEM leukemia,> 100 µM
same,TGI,COLO 205 colon,> 100 µM
same,TGI,DU-145 prostate,> 100 µM
same,TGI,EKVX NSCLC,> 100 µM
same,TGI,HCC-2998 colon,> 100 µM
same,TGI,HCT-116 colon,> 100 µM
same,TGI,HL-60(TB) leukemia,> 100 µM
same,TGI,HOP-62 NSCLC,> 100 µM
same,TGI,HOP-92 NSCLC,> 100 µM
same,TGI,HS 578T breast,> 100 µM
same,TGI,HT29 colon,> 100 µM
same,TGI,IGROV1 ovarian,> 100 µM
same,TGI,K-562 leukemia,> 100 µM
same,TGI,KM12 colon,> 100 µM
same,TGI,LOX IMVI melanoma,> 100 µM
same,TGI,M14 melanoma,> 100 µM
same,TGI,MALME-3M melanoma,> 100 µM
same,TGI,MCF7 breast,> 100 µM
same,TGI,MDA-MB-231 breast,> 100 µM
same,TGI,MDA-MB-435,> 100 µM
same,TGI,MDA-N,> 100 µM
same,TGI,MOLT-4 leukemia,> 100 µM
same,TGI,NCI-H226 lung,> 100 µM
same,TGI,NCI-H23 lung,> 100 µM
same,TGI,NCI-H460 lung,> 100 µM
same,TGI,NCI-H522 lung,> 100 µM
same,TGI,NCI/ADR-RES ovarian,> 100 µM
same,TGI,OVCAR-3 ovarian,> 100 µM
same,TGI,OVCAR-4 ovarian,> 100 µM
same,TGI,OVCAR-5 ovarian,> 100 µM
same,TGI,OVCAR-8 ovarian,> 100 µM
same,TGI,PC-3 prostate,> 100 µM
same,TGI,RPMI-8226 leukemia,> 100 µM
same,TGI,RXF 393 renal,> 100 µM
same,TGI,SF-268 CNS,> 100 µM
same,TGI,SF-295 CNS,> 100 µM
same,TGI,SF-539 CNS,> 100 µM
same,TGI,SK-MEL-28 melanoma,> 100 µM
same,TGI,SK-MEL-5 melanoma,> 100 µM
same,TGI,SK-OV-3 ovarian,> 100 µM
same,TGI,SN12C renal,> 100 µM
same,TGI,SNB-19 CNS,> 100 µM
same,TGI,SNB-75 CNS,> 100 µM
same,TGI,SR leukemia,> 100 µM
same,TGI,SW-620 colon,> 100 µM
same,TGI,T-47D breast,> 100 µM
same,TGI,TK-10 renal,> 100 µM
same,TGI,UACC-257 melanoma,> 100 µM
same,TGI,UACC-62 melanoma,> 100 µM
same,TGI,UO-31 renal,> 100 µM
CO[C@H]1O[C@@H]2OC3(C)CCC4[C@H](C)CCC([C@H]1C)[C@]42OO3 (stereo partly drawn),TGI,786-0 renal,> 100 µM
same,TGI,A498 renal,> 100 µM
same,TGI,A549 NSCLC,> 100 µM
same,TGI,ACHN renal,> 100 µM
same,TGI,CAKI-1 renal,> 100 µM
same,TGI,CCRF-CEM leukemia,> 100 µM
same,TGI,COLO 205 colon,> 100 µM
same,TGI,DU-145 prostate,> 100 µM
same,TGI,EKVX NSCLC,> 100 µM
same,TGI,HCC-2998 colon,> 100 µM
same,TGI,HCT-116 colon,> 100 µM
same,TGI,HCT-15 colon,> 100 µM
same,TGI,HL-60(TB) leukemia,46.7 µM
same,TGI,HOP-62 NSCLC,> 100 µM
same,TGI,HOP-92 NSCLC,> 100 µM
same,TGI,HS 578T breast,> 100 µM
same,TGI,HT29 colon,> 100 µM
same,TGI,IGROV1 ovarian,> 100 µM
same,TGI,K-562 leukemia,> 100 µM
same,TGI,LOX IMVI melanoma,> 100 µM
same,TGI,M14 melanoma,> 100 µM
same,TGI,MALME-3M melanoma,> 100 µM
same,TGI,MDA-MB-231 breast,> 100 µM
same,TGI,MDA-MB-435,> 100 µM
same,TGI,MDA-N,> 100 µM
same,TGI,MOLT-4 leukemia,> 100 µM
same,TGI,NCI-H226 lung,> 100 µM
same,TGI,NCI-H23 lung,> 100 µM
same,TGI,NCI-H460 lung,> 100 µM
same,TGI,NCI-H522 lung,> 100 µM
same,TGI,NCI/ADR-RES ovarian,> 100 µM
same,TGI,OVCAR-3 ovarian,> 100 µM
same,TGI,OVCAR-4 ovarian,> 100 µM
same,TGI,OVCAR-5 ovarian,> 100 µM
same,TGI,OVCAR-8 ovarian,> 100 µM
same,TGI,PC-3 prostate,> 100 µM
same,TGI,RPMI-8226 leukemia,> 100 µM
same,TGI,RXF 393 renal,> 100 µM
same,TGI,SF-268 CNS,> 100 µM
same,TGI,SF-295 CNS,> 100 µM
same,TGI,SF-539 CNS,> 100 µM
same,TGI,SK-MEL-2 melanoma,> 100 µM
same,TGI,SK-MEL-28 melanoma,> 100 µM
same,TGI,SK-MEL-5 melanoma,> 100 µM
same,TGI,SK-OV-3 ovarian,> 100 µM
same,TGI,SN12C renal,> 100 µM
same,TGI,SNB-19 CNS,> 100 µM
same,TGI,SNB-75 CNS,> 100 µM
same,TGI,SR leukemia,> 100 µM
same,TGI,SW-620 colon,> 100 µM
same,TGI,T-47D breast,> 100 µM
same,TGI,U251 CNS,> 100 µM
same,TGI,UACC-257 melanoma,> 100 µM
same,TGI,UACC-62 melanoma,> 100 µM
same,TGI,UO-31 renal,> 100 µM
